# Experimental data: ChEMBL document CHEMBL3046447, “Insecticidal Activity of α-Methylene-γ-butyrolactone against Several Insect Pests” (1999)
# What was measured:
# Assay type in all cases: functional
# Plutella xylostella [1] = experiment: Insecticidal activity against adult Plutella xylostella (diamondback moth) assessed as mortality at 600 ug/disc after 24 hr relative to control
# Nilaparvata lugens [2] = experiment: Insecticidal activity against adult Nilaparvata lugens (brown planthopper) assessed as mortality at 60 ug/disc after 24 hr relative to control
# Thrips palmi [3] = experiment: Insecticidal activity against adult Thrips palmi assessed as mortality at 25 ug/disk after 72 hr relative to control
# Thrips palmi [4] = experiment: Insecticidal activity against adult Thrips palmi assessed as mortality at 50 ug/disk after 48 hr relative to control
# Frankliniella intonsa [5] = experiment: Insecticidal activity against adult Frankliniella intonsa assessed as mortality at 50 ug/disk after 48 hr relative to control
# Thrips palmi [6] = experiment: Insecticidal activity against adult Thrips palmi assessed as mortality at 37.5 ug/disk after 24 hr relative to control
# [7] = system: Frankliniella occidentalis; experiment: Insecticidal activity against adult Frankliniella occidentalis (western flower thrips) assessed as mortality at 12.5 ug/disc after 72 hr relative to control
# [8] = system: Frankliniella occidentalis; experiment: Insecticidal activity against adult Frankliniella occidentalis (western flower thrips) assessed as mortality at 12.5 ug/disc after 24 hr relative to control
# Thrips palmi [9] = experiment: Insecticidal activity against adult Thrips palmi assessed as mortality at 12.5 ug/disk after 48 hr relative to control
# Nilaparvata lugens [10] = experiment: Insecticidal activity against adult Nilaparvata lugens (brown planthopper) assessed as mortality at 600 ug/disc after 24 hr relative to control
# [11] = system: Frankliniella occidentalis; experiment: Insecticidal activity against adult Frankliniella occidentalis (western flower thrips) assessed as mortality at 12.5 ug/disc after 48 hr relative to control
# Frankliniella intonsa [12] = experiment: Insecticidal activity against adult Frankliniella intonsa assessed as mortality at 25 ug/disk after 48 hr relative to control
# Thrips palmi [13] = experiment: Insecticidal activity against adult Thrips palmi assessed as mortality at 12.5 ug/disk after 24 hr relative to control
# Frankliniella intonsa [14] = experiment: Insecticidal activity against adult Frankliniella intonsa assessed as mortality at 37.5 ug/disk after 48 hr relative to control
# Frankliniella intonsa [15] = experiment: Insecticidal activity against adult Frankliniella intonsa assessed as mortality at 25 ug/disk after 24 hr relative to control
# Frankliniella intonsa [16] = experiment: Insecticidal activity against adult Frankliniella intonsa assessed as mortality at 12.5 ug/disk after 72 hr relative to control
# Thrips palmi [17] = experiment: Insecticidal activity against adult Thrips palmi assessed as mortality at 12.5 ug/disk after 72 hr relative to control
# Plutella xylostella [18] = experiment: Insecticidal activity against adult Plutella xylostella (diamondback moth) assessed as mortality at 600 ug/disc after 48 hr relative to control
# Nilaparvata lugens [19] = experiment: Insecticidal activity against adult Nilaparvata lugens (brown planthopper) assessed as mortality at 60 ug/disc after 48 hr relative to control
# Spodoptera litura [20] = experiment: Insecticidal activity against adult Spodoptera litura assessed as mortality at 600 ug/disc after 24 hr relative to control
# Frankliniella intonsa [21] = experiment: Insecticidal activity against adult Frankliniella intonsa assessed as mortality at 37.5 ug/disk after 24 hr relative to control
# Thrips palmi [22] = experiment: Insecticidal activity against adult Thrips palmi assessed as mortality at 37.5 ug/disk after 72 hr relative to control
# Frankliniella intonsa [23] = experiment: Insecticidal activity against adult Frankliniella intonsa assessed as mortality at 25 ug/disk after 72 hr relative to control
# Thrips palmi [24] = experiment: Insecticidal activity against adult Thrips palmi assessed as mortality at 37.5 ug/disk after 48 hr relative to control
# Spodoptera litura [25] = experiment: Insecticidal activity against adult Spodoptera litura assessed as mortality at 60 ug/disc after 48 hr relative to control
# Thrips palmi [26] = experiment: Insecticidal activity against adult Thrips palmi assessed as mortality at 25 ug/disk after 48 hr relative to control
# Frankliniella intonsa [27] = experiment: Insecticidal activity against adult Frankliniella intonsa assessed as mortality at 12.5 ug/disk after 24 hr relative to control
# [28] = system: Frankliniella occidentalis; experiment: Insecticidal activity against adult Frankliniella occidentalis (western flower thrips) assessed as mortality at 37.5 ug/disc after 48 hr relative to control
# Thrips palmi [29] = experiment: Insecticidal activity against adult Thrips palmi assessed as mortality at 25 ug/disk after 24 hr relative to control
# [30] = system: Frankliniella occidentalis; experiment: Insecticidal activity against adult Frankliniella occidentalis (western flower thrips) assessed as mortality at 37.5 ug/disc after 24 hr relative to control
# Plutella xylostella [31] = experiment: Insecticidal activity against adult Plutella xylostella (diamondback moth) assessed as mortality at 60 ug/disc after 48 hr relative to control
# Frankliniella intonsa [32] = experiment: Insecticidal activity against adult Frankliniella intonsa assessed as mortality at 50 ug/disk after 72 hr relative to control
# Plutella xylostella [33] = experiment: Insecticidal activity against adult Plutella xylostella (diamondback moth) assessed as mortality at 60 ug/disc after 24 hr relative to control
# Spodoptera litura [34] = experiment: Insecticidal activity against adult Spodoptera litura assessed as mortality at 60 ug/disc after 24 hr relative to control
# Thrips palmi [35] = experiment: Insecticidal activity against adult Thrips palmi assessed as mortality at 75 ug/disk after 24 hr relative to control
# [36] = system: Frankliniella occidentalis; experiment: Insecticidal activity against adult Frankliniella occidentalis (western flower thrips) assessed as mortality at 75 ug/disc after 24 hr relative to control
# Nilaparvata lugens [37] = experiment: Insecticidal activity against adult Nilaparvata lugens (brown planthopper) assessed as mortality at 600 ug/disc after 48 hr relative to control
# Thrips palmi [38] = experiment: Insecticidal activity against adult Thrips palmi assessed as mortality at 50 ug/disk after 24 hr relative to control
# Spodoptera litura [39] = experiment: Insecticidal activity against adult Spodoptera litura assessed as mortality at 600 ug/disc after 48 hr relative to control
# Frankliniella intonsa [40] = experiment: Insecticidal activity against adult Frankliniella intonsa assessed as mortality at 75 ug/disk after 24 hr relative to control
# Frankliniella intonsa [41] = experiment: Insecticidal activity against adult Frankliniella intonsa assessed as mortality at 12.5 ug/disk after 48 hr relative to control
# Frankliniella intonsa [42] = experiment: Insecticidal activity against adult Frankliniella intonsa assessed as mortality at 37.5 ug/disk after 72 hr relative to control
compound,measurement,setting,value
C=C1CCOC1=O [TULIPALINE A],mortality at 600 µg/disc,Plutella xylostella [1],0%
same,mortality at 60 µg/disc,Nilaparvata lugens [2],0%
same,mortality at 25 µg/disc,Thrips palmi [3],90%
same,mortality at 50 µg/disc,Thrips palmi [4],100%
same,mortality at 50 µg/disc,Frankliniella intonsa [5],70%
same,mortality at 37.5 µg/disc,Thrips palmi [6],56%
same,mortality at 12.5 µg/disc,[7],12%
same,mortality at 12.5 µg/disc,[8],4%
same,mortality at 12.5 µg/disc,Thrips palmi [9],14%
same,mortality at 600 µg/disc,Nilaparvata lugens [10],0%
same,mortality at 12.5 µg/disc,[11],8%
same,mortality at 25 µg/disc,Frankliniella intonsa [12],48%
same,mortality at 12.5 µg/disc,Thrips palmi [13],2%
same,mortality at 37.5 µg/disc,Frankliniella intonsa [14],66%
same,mortality at 25 µg/disc,Frankliniella intonsa [15],34%
same,mortality at 12.5 µg/disc,Frankliniella intonsa [16],0%
same,mortality at 12.5 µg/disc,Thrips palmi [17],20%
same,mortality at 600 µg/disc,Plutella xylostella [18],50%
same,mortality at 60 µg/disc,Nilaparvata lugens [19],0%
same,mortality at 600 µg/disc,Spodoptera litura [20],0%
same,mortality at 37.5 µg/disc,Frankliniella intonsa [21],58%
same,mortality at 37.5 µg/disc,Thrips palmi [22],100%
same,mortality at 25 µg/disc,Frankliniella intonsa [23],48%
same,mortality at 37.5 µg/disc,Thrips palmi [24],94%
same,mortality at 60 µg/disc,Spodoptera litura [25],0%
same,mortality at 25 µg/disc,Thrips palmi [26],70%
same,mortality at 12.5 µg/disc,Frankliniella intonsa [27],0%
same,mortality at 37.5 µg/disc,[28],100%
same,mortality at 25 µg/disc,Thrips palmi [29],14%
same,mortality at 37.5 µg/disc,[30],52%
same,mortality at 60 µg/disc,Plutella xylostella [31],0%
same,mortality at 50 µg/disc,Frankliniella intonsa [32],94%
same,mortality at 60 µg/disc,Plutella xylostella [33],0%
same,mortality at 60 µg/disc,Spodoptera litura [34],0%
same,mortality at 75 µg/disc,Thrips palmi [35],100%
same,mortality at 75 µg/disc,[36],100%
same,mortality at 600 µg/disc,Nilaparvata lugens [37],30%
same,mortality at 50 µg/disc,Thrips palmi [38],80%
same,mortality at 600 µg/disc,Spodoptera litura [39],20%
same,mortality at 75 µg/disc,Frankliniella intonsa [40],100%
same,mortality at 12.5 µg/disc,Frankliniella intonsa [41],0%
same,mortality at 37.5 µg/disc,Frankliniella intonsa [42],76%
